These results are taken from patent publication US20220211630A1, “SOLID NANOPARTICLE FORMULATION OF WATER INSOLUBLE PHARMACEUTICAL SUBSTANCES WITH REDUCED OSTWALD RIPENING AND IMMEDIATE DRUG RELEASE FOLLOWING INTRAVENOUS ADMINISTRATION” (priority 2019, published 2022).

The conditions of data set [1]: oral, human gastrointestinal tract; cited from earlier work.
For another data set, the target named is human CB1 receptors (Homo sapiens, UniProt P21554). Conditions: read-out: Affinity; cited from earlier work.
The conditions of data set [2]: cited from earlier work.
A further data set deals with human CB2 receptors (Homo sapiens, UniProt P34972). Conditions: read-out: Affinity; cited from earlier work.
Data set [3] in a line: Drug solubility in supernatant of reconstituted suspension after ultracentrifugation (HPLC). Type of data set: physicochemical. The note with it: room temperature. As to the method:
The quantities of docetaxel, rapamycin and 17-AAG and human albumin in the supernatant were measured by high performance liquid chromatography (HPLC) and the results are summarized in Table 9.
The quantities of ixabepilone and rapamycin in the supernatant were measured by high performance liquid chromatography (HPLC) and the results are summarized in Table 18.

Where [4] appears, read: LBI-1103 (Lot RAD002) reconstituted suspension (5 mg/mL Docetaxel; 5 mg/mL Rapamycin and 10 mg/mL 17-AAG), 87,000 rpm 1 hour.
The mark [5] stands for this setting: LBI-0728 (Lot CRX001) reconstituted suspension (2 mg/mL Ixabepilone and 5 mg/mL Rapamycin), 87,000 rpm 1 hour.

As usually defined, the solubility is how much of the substance goes into solution per volume.

Converted amounts (≈) assume the structure as drawn. Where two headings read alike, the source gives them in different places.

Chain of human CB1 receptors (P21554 whole entry): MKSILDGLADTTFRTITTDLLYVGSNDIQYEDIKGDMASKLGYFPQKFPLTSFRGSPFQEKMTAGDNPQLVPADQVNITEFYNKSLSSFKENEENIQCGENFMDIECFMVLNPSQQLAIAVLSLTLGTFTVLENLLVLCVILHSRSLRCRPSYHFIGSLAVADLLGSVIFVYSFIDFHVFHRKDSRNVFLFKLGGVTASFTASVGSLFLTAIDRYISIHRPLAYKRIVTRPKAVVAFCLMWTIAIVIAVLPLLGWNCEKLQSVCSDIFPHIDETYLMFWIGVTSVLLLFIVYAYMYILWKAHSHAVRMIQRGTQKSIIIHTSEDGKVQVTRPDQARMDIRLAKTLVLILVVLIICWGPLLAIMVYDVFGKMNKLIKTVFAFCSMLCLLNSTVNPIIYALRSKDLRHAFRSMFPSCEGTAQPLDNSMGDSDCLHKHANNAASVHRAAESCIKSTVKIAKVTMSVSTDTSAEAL
Chain of human CB2 receptors (P34972 whole entry): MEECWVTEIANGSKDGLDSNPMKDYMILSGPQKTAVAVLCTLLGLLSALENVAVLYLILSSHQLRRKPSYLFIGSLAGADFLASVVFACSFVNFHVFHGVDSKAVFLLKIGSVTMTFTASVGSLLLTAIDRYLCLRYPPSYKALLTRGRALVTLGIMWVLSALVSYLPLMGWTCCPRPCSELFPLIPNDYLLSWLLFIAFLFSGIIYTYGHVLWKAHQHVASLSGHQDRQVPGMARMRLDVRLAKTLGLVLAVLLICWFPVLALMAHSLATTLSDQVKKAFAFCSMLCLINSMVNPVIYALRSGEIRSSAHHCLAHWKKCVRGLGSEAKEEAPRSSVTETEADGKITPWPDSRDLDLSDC

On to `CCCCCCC(C)(C)c1cc(O)c2c(c1)OC(C)(C)C1CCC(=O)CC21` (racemic) [Nabilone, (±)-trans-3-(1,1-dimethylheptyl)-6,6a,7,8,10,10a-hexahydro-1-hydroxy-6-6-dimethyl-9H-dibenzo[b,d]pyran-9-one], for which the “Absorption when administered orally” value in data set [1] is recorded as “completely absorbed”. The Ki at human CB1 receptors was 2.2 nM; at human CB2 receptors, 1.8 nM. In addition, the Solubility in water entry in data set [2] (pH values ranging from 1.2 to 7.0) is “less than 0.5 mg/L”.

Take `CC(=O)O[C@@]12CO[C@@H]1C[C@H](O)[C@@]1(C)C(=O)[C@H](O)C3=C(C)[C@@H](OC(=O)[C@H](O)[C@@H](NC(=O)OC(C)(C)C)c4ccccc4)C[C@@](O)([C@@H](OC(=O)c4ccccc4)[C@H]21)C3(C)C` [Docetaxel]: the solubility in data set [3] (setting [4]) was found to be 114 µg/mL. In addition, the Solubility in water entry in data set [2] is on record as “about 14 mg/L”.

As for `CO[C@H]1C[C@@H]2CC[C@@H](C)[C@@](O)(O2)C(=O)C(=O)N2CCCC[C@H]2C(=O)O[C@H]([C@H](C)C[C@@H]2CC[C@@H](OCCO)[C@H](OC)C2)CC(=O)[C@H](C)/C=C(\C)[C@@H](O)[C@@H](OC)C(=O)[C@H](C)C[C@H](C)/C=C/C=C/C=C/1C` [Everolimus, 40-O-(2-Hydroxy)ethyl rapamycin], the solubility in data set [3] (LBI-0609 (Lot CEP002) reconstituted suspension (X mg/mL Everolimus and 5 mg/mL Paclitaxel), 87,000 rpm 1 hour) turned out to be 14 µg/mL (≈ 14.6 µM).

For `C=CCNC1=C2C[C@@H](C)C[C@H](OC)[C@H](O)[C@@H](C)/C=C(\C)[C@H](OC(N)=O)[C@@H](OC)/C=C\C=C(/C)C(=O)NC(=CC1=O)C2=O` [Example 17AAG, 17-allylaminogeldanamycin], the solubility in data set [3] (setting [4]) was determined as 108 µg/mL.

With `C/C(=C\c1csc(C)n1)[C@@H]1C[C@@H]2O[C@]2(C)CCC[C@H](C)[C@H](O)[C@@H](C)C(=O)C(C)(C)[C@@H](O)CC(=O)N1` [Ixabepilone], the solubility in data set [3] (setting [5]) stood at 407 µg/mL. Besides, in data set [2], the Solubility in water entry was “about 3.5 mg/L”.

`CC(=O)O[C@H]1C(=O)[C@@]2(C)[C@H]([C@H](OC(=O)c3ccccc3)[C@]3(O)C[C@H](OC(=O)[C@H](O)[C@@H](NC(=O)c4ccccc4)c4ccccc4)C(C)=C1C3(C)C)[C@]1(OC(C)=O)CO[C@@H]1C[C@@H]2O` [Paclitaxel]: in data set [3] (LBI-0609 (Lot CEP002) reconstituted suspension (Everolimus and 5 mg/mL Paclitaxel), 87,000 rpm 1 hour), the “Drug Solubility in Supernatant” value is 82 µg/mL. For the same molecule, the Solubility in water result in data set [2] is on record as “about 0.4 mg/L”.

As for `CO[C@H]1C[C@@H]2CC[C@@H](C)[C@@](O)(O2)C(=O)C(=O)N2CCCC[C@H]2C(=O)O[C@H]([C@H](C)C[C@@H]2CC[C@@H](O)[C@H](OC)C2)CC(=O)[C@H](C)/C=C(\C)[C@@H](O)[C@@H](OC)C(=O)[C@H](C)C[C@H](C)/C=C/C=C/C=C/1C` [Rapamycin], the solubility turned out to be 22 µg/mL in data set [3] (setting [5]) and 19 µg/mL in data set [3] (setting [4]). Moreover, in data set [2], the “Solubility in water” value is on record as “insoluble in water”.

Consider `CO[C@H]1C(=O)[C@]2(C)[C@@H](OC)C[C@H]3OC[C@@]3(OC(C)=O)[C@H]2[C@H](OC(=O)c2ccccc2)[C@]2(O)C[C@H](OC(=O)[C@H](O)[C@@H](NC(=O)OC(C)(C)C)c3ccccc3)C(C)=C1C2(C)C` [cabazitaxel], for which the Solubility in water result in data set [2] is listed as “about 8 mg/L”.
